Like-named read-outs stand apart in the source and are kept apart here.
Target: human TrkA (Homo sapiens (Human), UniProt P04629)
Assay: Human TrkA inhibition assay (Test Example 2)
Format: biochemical
Summary of the method: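 Recombinant TrkA (1 nmol/L) was preincubated 15 min at room temperature with compound in HEPES/MgCl2/DTT buffer, then reacted with FL-peptide 27 (1.5 μmol/L) and ATP (500 μmol/L) for 120 min at 37 °C. After EDTA stop, substrate phosphorylation was read by microfluidic mobility shift. IC50 came from logistic regression over 3-fold dilution series.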

[1] = Table 155, human TrkA inhibition, read-out: IC50
[2] = Table 153, human TrkA inhibition, read-out: IC50
[3] = Table 154, human TrkA inhibition, read-out: IC50
[4] = Table 157, human TrkA inhibition, read-out: IC50
[5] = Table 156, human TrkA inhibition, read-out: IC50
[6] = human TrkA 1 nmol/L, ATP 500 μmol/L, 120 min at 37° C., read-out: IC50 values (TrkA phosphorylation inhibition)
[7] = Table 152, human TrkA inhibition, read-out: IC50_nM

Chain of human TrkA (P04629 440-796): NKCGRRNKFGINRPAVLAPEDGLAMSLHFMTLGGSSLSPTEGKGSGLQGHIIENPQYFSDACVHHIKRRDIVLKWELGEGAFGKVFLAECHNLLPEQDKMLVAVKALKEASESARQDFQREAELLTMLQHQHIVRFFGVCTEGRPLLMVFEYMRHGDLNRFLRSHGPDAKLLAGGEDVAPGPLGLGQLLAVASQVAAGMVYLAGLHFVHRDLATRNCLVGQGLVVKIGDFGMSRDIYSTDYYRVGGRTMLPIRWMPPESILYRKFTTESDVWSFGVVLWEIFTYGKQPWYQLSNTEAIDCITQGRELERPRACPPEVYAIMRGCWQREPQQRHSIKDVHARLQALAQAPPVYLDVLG

SMILES: COCCN1C[C@@H](NC(=O)Nc2c(C)c(-c3cc(C(=O)NC(C)(C)C)c(=O)n(C)c3)nn2-c2ccccc2)[C@H](c2ccnc(F)c2)O1 (racemic) [Compound I-389]
- IC50 [1]: < 100 nM

SMILES: CCNC(=O)c1ncc(-c2nn(-c3ccccc3)c(NC(=O)N[C@@H]3CN(CCOC)O[C@H]3c3ccnc(F)c3)c2C)cc1C (racemic) [Compound I-167]
- IC50 [2]: < 100 nM

SMILES: COCCN1C[C@@H](NC(=O)Nc2c(C)c(OCC3CC3)nn2-c2ccccc2)[C@H](c2ccnc(F)c2)O1 (racemic) [Compound I-502]
- IC50 [1]: < 100 nM

SMILES: COCCN1C[C@@H](NC(=O)Nc2c(C)c(-c3ccnc(C(=O)O)c3)nn2-c2ccccc2)[C@H](c2cnc(F)c(F)c2)O1 [Compound I-213]
- IC50 [3]: < 100 nM

SMILES: CCOc1ncc(-c2nn(-c3ccccc3)c(NC(=O)N[C@@H]3CN(CCOC)O[C@H]3c3cnc(F)c(F)c3)c2C)cn1 (racemic) [Compound I-68]
- IC50 [2]: < 100 nM

SMILES: CCN1C[C@@H](NC(=O)Nc2c(C)c(OCCCC(=O)NC3CC3)nn2-c2ccccc2)[C@H](c2ccc(F)c(F)c2)O1 (racemic) [Compound I-665]
- IC50 [4]: < 100 nM

SMILES: COCCN1C[C@@H](NC(=O)Nc2c(C)c(-c3ccc(C#N)nc3)nn2-c2ccccc2)[C@H](c2ccc(F)c(F)c2)O1 (racemic) [Compound I-129]
- IC50 [2]: < 100 nM

SMILES: CNC(=O)c1cc(-c2nn(-c3ccccc3)c(NC(=O)N[C@@H]3CN(CCF)O[C@H]3c3ccc(F)c(F)c3)c2C)cnc1OC (racemic) [Compound I-550]
- IC50 [5]: < 100 nM

SMILES: Cc1c(-c2cnc3c(cnn3C)c2)nn(-c2ccccc2)c1NC(=O)N[C@@H]1CN(CC2CC2)O[C@H]1c1ccc(F)c(F)c1 (racemic) [Compound I-201]
- IC50 [3]: < 100 nM

SMILES: COCCN1C[C@@H](NC(=O)Nc2c(C)c(-c3cnc4c(c3)nnn4C)nn2-c2ccccc2)[C@H](c2ccc(F)c(F)c2)O1 (racemic) [Compound I-126]
- IC50 [2]: < 100 nM

SMILES: COCCN1C[C@@H](NC(=O)Nc2c(C)c(-c3cnc(Cl)nc3)nn2-c2ccccc2)[C@H](c2ccnc(F)c2)O1 (racemic) [Compound I-249]
- IC50 [3]: < 100 nM

SMILES: COCCN1C[C@@H](NC(=O)Nc2c(C)c(OCc3ccccn3)nn2-c2ccccc2)[C@H](c2ccnc(F)c2)O1 (racemic) [Compound I-454]
- IC50 [1]: < 100 nM

SMILES: COCCN1C[C@@H](NC(=O)Nc2c(C)c(-c3cnc(-c4cnoc4)nc3)nn2-c2ccccc2)[C@H](c2ccnc(F)c2)O1 (racemic) [Compound I-476]
- IC50 [1]: < 100 nM

SMILES: COCCN1C[C@@H](NC(=O)Nc2c(C)c(-c3cnc(N4C[C@H]5COC[C@@H](C4)N5)nc3)nn2-c2ccccc2)[C@H](c2ccnc(F)c2)O1 (racemic) [Compound I-421]
- IC50 [1]: < 100 nM

SMILES: COCC[C@@H]1C[C@@H](NC(=O)Nc2c(C)c(-c3cnc(C)nc3)nn2-c2ccccc2)[C@H](c2ccc(F)c(F)c2)O1 (racemic) [Compound I-28]
- IC50 [6]: 2.5 nM

SMILES: COCCN1C[C@@H](NC(=O)Nc2c(C)c(-c3cnc(SC)nc3)nn2-c2ccccc2)[C@H](c2ccnc(F)c2)O1 (racemic) [Compound I-250]
- IC50 [3]: < 100 nM

SMILES: CCN1C[C@@H](NC(=O)Nc2c(C)c(-c3ccn(C)c(=O)c3)nn2-c2ccccc2)[C@H](c2ccc(F)c(F)c2)O1 (racemic) [Compound I-543]
- IC50 [5]: < 100 nM

SMILES: COCCC1C[C@@H](NC(=O)Nc2c(C)c(-c3ccc(C(=O)OC(C)(C)C)cc3)nn2-c2ccccc2)[C@H](c2ccccc2)O1 (stereo partly shown) [Compound I-13]
- IC50 [7]: < 100 nM

SMILES: COCCN1C[C@@H](NC(=O)Nc2c(C)c(-c3cnn(C)c3)nn2-c2ccccc2)[C@H](c2cc(F)nc(F)c2)O1 (racemic) [Compound I-217]
- IC50 [6]: 4.6 nM

SMILES: COCCN1C[C@@H](NC(=O)Nc2c(C)c(C3=CCN(C(=O)OC(C)(C)C)CC3)nn2-c2ccccc2)[C@H](c2ccc(F)c(F)c2)O1 (racemic) [Compound I-29]
- IC50 [7]: < 100 nM

SMILES: COCCN1C[C@@H](NC(=O)Nc2c(C)c(-c3cnc4c(c3)CCC4O)nn2-c2ccccc2)[C@H](c2ccnc(F)c2)O1 (stereo partly shown) [Compound I-353]
- IC50 [1]: < 100 nM

SMILES: COCCN1C[C@@H](NC(=O)Nc2c(C)c(OCc3cccnc3)nn2-c2ccccc2)[C@H](c2ccnc(F)c2)O1 (racemic) [Compound I-455]
- IC50 [1]: < 100 nM

SMILES: COCC[C@@H]1C[C@@H](NC(=O)Nc2c(C)c(-c3cnc(N(C(=O)OC(C)(C)C)C4CC4)nc3)nn2-c2ccccc2)[C@H](c2ccnc(F)c2)O1 [Compound I-290]
- IC50 [3]: < 100 nM

SMILES: COCCN1C[C@@H](NC(=O)Nc2c(C)c(-c3ccc(N=S(C)(C)=O)nc3)nn2-c2ccccc2)[C@H](c2ccc(F)c(F)c2)O1 [Compound I-186]
- IC50 [3]: < 100 nM

SMILES: COCCN1C[C@@H](NC(=O)Nc2c(C)c(-c3cnc4c(c3)ncn4C)nn2-c2ccccc2)[C@H](c2cc(F)nc(F)c2)O1 (racemic) [Compound I-320]
- IC50 [1]: < 100 nM

SMILES: COCCN1C[C@@H](NC(=O)Nc2c(C)c(-c3cnc4c(c3)nnn4C)nn2-c2ccccc2)[C@H](c2ccccc2)O1 (racemic) [Compound I-162]
- IC50 [2]: < 100 nM

SMILES: COCCN1C[C@@H](NC(=O)Nc2c(C)c(-c3cnc4c(cnn4C)n3)nn2-c2ccccc2)[C@H](c2ccnc(F)c2)O1 (racemic) [Compound I-432]
- IC50 [1]: < 100 nM

SMILES: CCN1C[C@@H](NC(=O)Nc2c(C)c(-c3cnc(C(N)=O)c(F)c3)nn2-c2ccccc2)[C@H](c2ccc(F)c(F)c2)O1 (racemic) [Compound I-612]
- IC50 [4]: < 100 nM

SMILES: COCCN1C[C@@H](NC(=O)Nc2c(C)c(-c3cnc4c(c3)c(CO)nn4C)nn2-c2ccccc2)[C@H](c2ccnc(F)c2)O1 (racemic) [Compound I-434]
- IC50 [1]: < 100 nM

SMILES: COCCN1C[C@@H](NC(=O)Nc2c(C)c(-c3cnc(OC(F)F)nc3)nn2-c2ccccc2)[C@H](c2ccnc(F)c2)O1 (racemic) [Compound I-328]
- IC50 [1]: < 100 nM

SMILES: COCCN1C[C@@H](NC(=O)Nc2c(C)c(-c3cnc(N=S(C)(C)=O)c(C)c3)nn2-c2ccccc2)[C@H](c2ccc(F)c(F)c2)O1 (racemic) [Compound I-92]
- IC50 [2]: < 100 nM

SMILES: COCCN1C[C@@H](NC(=O)Nc2c(C)c(-c3ccnc(C(=O)NOC)c3)nn2-c2ccccc2)[C@H](c2ccc(F)c(F)c2)O1 (racemic) [Compound I-198]
- IC50 [3]: < 100 nM

SMILES: CCNC(=O)c1cc(-c2nn(-c3ccccc3)c(NC(=O)N[C@@H]3CN(CCOC)O[C@H]3c3ccnc(F)c3)c2C)cn(C)c1=O (racemic) [Compound I-107]
- IC50 [2]: < 100 nM

SMILES: CNc1ncc(-c2nn(-c3ccccc3)c(NC(=O)N[C@@H]3CN(CCOC)O[C@H]3c3ccnc(F)c3)c2C)cn1 (racemic) [Compound I-93]
- IC50 [2]: < 100 nM

SMILES: CNC(=O)c1ncc(-c2nn(-c3ccccc3)c(NC(=O)N[C@@H]3CN(CCOC)O[C@H]3c3ccnc(F)c3)c2C)cc1C (racemic) [Compound I-166]
- IC50 [6]: 4.8 nM

SMILES: COCCN1C[C@@H](NC(=O)Nc2c(C)c(-c3cnc(C)nc3)nn2-c2ccccc2)[C@H](c2ccnc(F)c2)O1 (racemic) [Compound I-47]
- IC50 [6]: 4 nM

SMILES: COCCN1C[C@@H](NC(=O)Nc2c(C)c(C(=O)NCC(C)(C)O)nn2-c2ccccc2)[C@H](c2ccnc(F)c2)O1 (racemic) [Compound I-385]
- IC50 [1]: < 100 nM

SMILES: CNC(=O)c1nn(-c2ccccc2)c(NC(=O)N[C@@H]2CN(CCOC)O[C@H]2c2ccnc(F)c2)c1C (racemic) [Compound I-384]
- IC50 [1]: < 100 nM

SMILES: COCCN1C[C@@H](NC(=O)Nc2c(C)c(-c3ccc(N4CCC(NC(C)=O)C4)nc3)nn2-c2ccccc2)[C@H](c2ccnc(F)c2)O1 (stereo partly shown) [Compound I-349]
- IC50 [1]: < 100 nM

SMILES: COCCN1C[C@@H](NC(=O)Nc2c(C)c(-c3cnc(OC)c(C(=O)NOC)c3)nn2-c2ccccc2)[C@H](c2ccnc(F)c2)O1 (racemic) [Compound I-260]
- IC50 [3]: < 100 nM

SMILES: CCN1C[C@@H](NC(=O)Nc2c(C)c(-c3ccn4ccnc4c3)nn2-c2ccccc2)[C@H](c2ccc(F)c(F)c2)O1 (racemic) [Compound I-625]
- IC50 [4]: < 100 nM

SMILES: COCCN1C[C@@H](NC(=O)Nc2c(C)c(-c3ccn4ccnc4c3)nn2-c2ccccc2)[C@H](c2ccc(F)c(F)c2)O1 [Compound I-461]
- IC50 [1]: < 100 nM

SMILES: CCN1C[C@@H](NC(=O)Nc2c(C)c(C3=CCN(C(=O)CO)CC3)nn2-c2ccccc2)[C@H](c2ccc(F)c(F)c2)O1 (racemic) [Compound I-655]
- IC50 [6]: 5 nM

SMILES: COCCN1C[C@@H](NC(=O)Nc2c(C)c(-c3cnc(N4CC5(CCC5)C4)nc3)nn2-c2ccccc2)[C@H](c2ccnc(F)c2)O1 (racemic) [Compound I-485]
- IC50 [1]: < 100 nM

SMILES: COCCN1C[C@@H](NC(=O)Nc2c(C)c(-c3ccc4nc(C(N)=O)cn4c3)nn2-c2ccccc2)[C@H](c2ccc(F)c(F)c2)O1 [Compound I-310]
- IC50 [3]: < 100 nM

SMILES: COCCC1C[C@@H](NC(=O)Nc2c(C)c(-c3ccc(=O)[nH]c3)nn2-c2ccccc2)[C@H](c2ccccc2)O1 (stereo partly shown) [Compound I-18]
- IC50 [7]: < 100 nM

SMILES: COCCN1C[C@@H](NC(=O)Nc2c(C)c(-c3cnc4c(c3)c(CO)nn4C)nn2-c2ccccc2)[C@H](c2cnc(F)c(F)c2)O1 [Compound I-128]
- IC50 [2]: < 100 nM

SMILES: COCC[C@@H]1C[C@@H](NC(=O)Nc2c(C)c(-c3cnc4c(c3)c(C)nn4C)nn2-c2ccccc2)[C@H](c2ccnc(F)c2)O1 [Compound I-274]
- IC50 [3]: < 100 nM

SMILES: COCCN1C[C@@H](NC(=O)Nc2c(C)c(-c3cnc(C4CC4)nc3)nn2-c2ccccc2)[C@H](c2cnc(F)c(F)c2)O1 (racemic) [Compound I-70]
- IC50 [2]: < 100 nM

SMILES: COCCN1C[C@@H](NC(=O)Nc2c(C)c(-c3ccn(C)c(=O)c3)nn2-c2ccccc2)[C@H](c2ccnc(F)c2)O1 (racemic) [Compound I-495]
- IC50 [1]: < 100 nM

SMILES: CCN1C[C@@H](NC(=O)Nc2c(C)c(OCC3CCN(C(=O)COC)CC3)nn2-c2ccccc2)[C@H](c2ccc(F)c(F)c2)O1 (racemic) [Compound I-608]
- IC50 [4]: < 100 nM

SMILES: COCCN1C[C@@H](NC(=O)Nc2c(C)c(-c3cnc(N4CCN(C)C[C@H]4C)nc3)nn2-c2ccccc2)[C@H](c2ccnc(F)c2)O1 [Compound I-594]
- IC50 [4]: < 100 nM
